The target of one experiment is T1, CLC2 CBS1-2 (WT) (Homo sapiens, UniProt P51788).
T1 construct: DNAs encoding residues 582-840 of CLC2; made in house; host or cells: E. coli BL21 (DE3)
Description: Filter binding assay, GST-CBS domain fusion. The following applies: single-site model.

Another experiment has as its system rat liver AMPK. Conditions: read-out: half-maximal effect (A0.5), cited from earlier work.
The next experiment has as its target T2, IMPDH2 Tetramer (WT) (Homo sapiens, UniProt P12268).
T2 construct: the full-length protein (1-514); His tag (pHAT20 vector); made in house; host or cells: E. coli
In words: Filter binding assay, full-length protein. The following applies: for Kd: read-out: B0.5. The source says: (§1) For IMPDH2, DNAs encoding residues 112-232 or the full-length protein (1-514) were amplified using human liver cDNA (Clontech) as template, and cloned into pHAT20 (Clontech) using 5′-AgeI and 3′-KpnI sites added to the primers. For the other constructs, DNAs encoding residues 582-840 of CLC2, or 416-551 of cystathionine â-synthase, were amplified using human liver cDNA as template, and cloned into pGEX-KG as above using 5′-BamHI and 3′-XhoI sites added to the primers. All mutations were created using the Stratagene QuikChange Site-directed Mutagenesis system.
(§2) The IMPDH2 constructs were His-tagged and were purified on chelating-Sepharose (Pharmacia) charged with 50 mM CoCl2 according to manufacturer's instructions.
(§3) Various concentrations of [^14C]-AMP, [γ^32P] […] Reactions were stopped by spotting 10 ìl onto a Millipore MF Filter Membrane disc and rapidly washing under high vacuum with 1 ml of ice-cold TBS. Radioactivity was determined on the filters by scintillation counting. Non-specific binding (which was trivial) was determined by performing the assay with GST as a control, and was subtracted. […] Data were fitted to the binding models given in the text, using GraphPad Prism 3. Estimates of parameters resulting from fits are quoted in the text and Table 1±standard error, and the curves shown in figures are theoretical curves obtained using those estimates.

The target in another experiment is T3, IMPDH2 Tetramer (R224P) (Homo sapiens, UniProt P12268, R224P).
T3 construct: the full-length protein (1-514); His tag (pHAT20 vector); made in house; host or cells: E. coli
In words: Filter binding assay, full-length protein.
Description: as §1, §2, §3

Several values for one entry are separate records, joined by “and”; a condition that tells them apart may be missing. Identical values can stand only once. Like-named read-outs stand apart in the source and are kept apart here.

T1 sequence (P51788 582-840): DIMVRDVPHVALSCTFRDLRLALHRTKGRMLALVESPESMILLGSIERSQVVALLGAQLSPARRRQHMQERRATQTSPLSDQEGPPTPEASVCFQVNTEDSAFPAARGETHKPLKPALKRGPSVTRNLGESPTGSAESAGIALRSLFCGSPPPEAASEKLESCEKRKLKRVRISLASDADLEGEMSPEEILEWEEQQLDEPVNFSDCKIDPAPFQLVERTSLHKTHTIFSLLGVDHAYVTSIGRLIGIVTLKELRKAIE
Description for CLC2 CBS1-2 (WT): DNA encoding the CBS domain pair from the chloride channel CLC2 was also cloned and expressed.
ATP or [^35S]SAM were incubated with GST-CBS domain fusions (1 ìM for WT, up to 20 μM for some mutants) for 10 min at 25° C. in a 20 il total volume in TBS. Reactions were stopped by spotting 10 ìl onto a Millipore MF Filter Membrane disc and rapidly washing under high vacuum with 1 ml of ice-cold TBS. Radioactivity was determined on the filters by scintillation counting. Non-specific binding (which was trivial) was determined by performing the assay with GST as a control, and was subtracted. […] Data were fitted to the binding models given in the text, using GraphPad Prism 3.

With `Nc1ncnc2c1ncn2[C@@H]1O[C@H](COP(=O)(O)O)[C@@H](O)[C@H]1O` [AMP, adenosine monophosphate], the Kd at CLC2 CBS1-2 (WT) worked out at 1.06 ± 0.08 mM. The values for the EC50 in the experiment on rat liver AMPK (assays in 200 μM ATP) and in the experiment on rat liver AMPK (at 4 mM ATP) were 4.4 µM and 29 µM, respectively.
As for `Nc1ncnc2c1ncn2[C@@H]1O[C@H](COP(=O)(O)OP(=O)(O)OP(=O)(O)O)[C@@H](O)[C@H]1O` [ATP], the “h (Hill coefficient)” value at IMPDH2 Tetramer (WT) is 1.7 and 1.7 ± 0.2; on IMPDH2 Tetramer (R224P), 0.9 ± 0.1. Further, the Kd on IMPDH2 Tetramer (WT) (Hill equation, 4 sites) worked out at 770 µM; on IMPDH2 Tetramer (WT) it was 760 µM; on IMPDH2 Tetramer (R224P) (Hill equation, 4 sites, read-out: B0.5), 64 ± 5 mM.
